Assay results reported in patent US20230233569A1 (Revolution Medicines, Inc., priority 2020, published 2023).

Tests used:
[1] = test system: Capan-1 (K-Ras G12V); experiment: CellTiter-Glo cell viability assay, 5-day treatment; type: cell-based; conditions: Homo sapiens, CAPAN-1, 120 h, 5-day treatment; read-out: Capan-1 Cell Viability assay data (K-Ras G12V, IC50)
How it was run: (§1)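 Compounds were dispensed directly onto seeded cells and incubated for 5 days, then plates were equilibrated to room temperature for about 30 minutes before luminescence reading. Signals were expressed as percent of the mean DMSO control and fitted with a four-parameter logistic curve.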

[2] = test system: NCI-H358 (K-Ras G12C); experiment: as above; type: cell-based; conditions: Homo sapiens, NCI-H358, 120 h, 5-day treatment; read-out: H358 Cell Viability assay data (K-Ras G12C, IC50)
How it was run: as §1

[3] = target: KRAS G12D (Homo sapiens, UniProt P01116+P62937, G12D); experiment: Disruption of BRAF RBD interaction with Ras (FRET / MOA assay, with Cyclophilin A); type: biochemical; conditions: read-out: KRAS G12D FRET data, IC50
How it was run: (§2)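 TR-FRET readout: a drop in ratio relative to DMSO wells marks disruption of the K-Ras:BRAF RBD complex via compound-induced K-Ras–Cyclophilin A ternary complex. Dosing used ten 3-fold steps from 30 μM final, 3 h at 25 °C, then Eu-anti-His 10 nM plus APC-anti-GST 50 nM for another 1.5 h. Values are IC50s.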

[4] = target: KRAS G12S (Homo sapiens, UniProt P01116+P62937, G12S); experiment: as above; type: biochemical; conditions: read-out: KRAS G12S FRET data, IC50
How it was run: as §2

[5] = target: KRAS G13D (Homo sapiens, UniProt P01116+P62937, G13D); experiment: as above; type: biochemical; conditions: KRAS G13D; read-out: KRAS G13D FRET data IC50
How it was run: as §2

[6] = target: KRAS G12V (Homo sapiens, UniProt P01116+P62937, G12V); experiment: as above; type: biochemical; conditions: KRAS G12V; read-out: KRAS G12V FRET data IC50
How it was run: as §2

[7] = target: NRAS G12C (Homo sapiens, UniProt P01111+P62937, G12C); experiment: as above; type: biochemical; conditions: NRAS G12C; read-out: NRAS G12C FRET data IC50
[8] = target: KRAS WT (Homo sapiens, UniProt P01116+P62937); experiment: as above; type: biochemical; conditions: KRAS WT; read-out: KRAS WT FRET data IC50
How it was run: as §2

[9] = target: KRAS G13C (Homo sapiens, UniProt P01116+P62937, G13C); experiment: as above; type: biochemical; conditions: read-out: KRAS G13C FRET data, IC50
How it was run: as §2

[10] = target: KRAS G12C (Homo sapiens, UniProt P01116+P62937, G12C); experiment: as above; type: biochemical; conditions: read-out: KRAS G12C FRET data, IC50
How it was run: as §2

[11] = target: NRAS Q61R (Homo sapiens, UniProt P01111+P62937, Q61R); experiment: as above; type: biochemical; conditions: NRAS Q61R; read-out: NRAS Q61R FRET data IC50
How it was run: (§3)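 IC50 reflects compound-driven Ras:Cyclophilin A ternary complex displacing BRAF RBD, read as lowered TR-FRET ratio relative to DMSO after Eu anti-His (10 nM) and APC anti-GST (50 nM) detection for 1.5 h. Prior incubation 3 h, 25° C, with 12.5 nM GMPPNP-loaded Ras, 50 nM BRAF RBD, 25 μM Cyclophilin A; top compound 30 μM.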

[12] = target: NRAS Q61K (Homo sapiens, UniProt P01111+P62937, Q61K); experiment: as above; type: biochemical; conditions: NRAS Q61K; read-out: NRAS Q61K FRET data IC50
How it was run: as §3

[13] = target: KRAS Q61H (Homo sapiens, UniProt P01116+P62937, Q61H); experiment: as above; type: biochemical; conditions: KRAS Q61H; read-out: KRAS Q61H FRET data IC50
How it was run: as §3

[14] = target: NRAS WT (Homo sapiens, UniProt P01111+P62937); experiment: as above; type: biochemical; conditions: NRAS WT; read-out: NRAS WT FRET data IC50
How it was run: as §3

Chain of KRAS G13D (P01116 1-169 isoform P01116-2 G13D limits assumed): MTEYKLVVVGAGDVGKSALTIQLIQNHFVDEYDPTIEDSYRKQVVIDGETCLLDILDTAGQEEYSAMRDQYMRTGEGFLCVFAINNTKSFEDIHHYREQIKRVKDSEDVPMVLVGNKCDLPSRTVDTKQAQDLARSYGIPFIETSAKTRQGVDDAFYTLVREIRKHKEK
Chain of KRAS G13D (P62937 whole entry): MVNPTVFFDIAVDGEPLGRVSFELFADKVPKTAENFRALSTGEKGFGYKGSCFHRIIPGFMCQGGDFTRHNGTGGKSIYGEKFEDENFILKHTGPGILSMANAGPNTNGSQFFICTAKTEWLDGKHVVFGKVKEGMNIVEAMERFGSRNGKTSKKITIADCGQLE
Chain of NRAS G12C (P01111 whole entry G12C): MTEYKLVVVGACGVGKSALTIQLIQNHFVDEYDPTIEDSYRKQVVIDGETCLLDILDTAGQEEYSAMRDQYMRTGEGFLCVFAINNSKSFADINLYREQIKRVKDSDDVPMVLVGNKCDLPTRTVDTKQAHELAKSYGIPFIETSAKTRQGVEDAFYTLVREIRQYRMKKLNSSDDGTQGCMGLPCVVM
Chain of NRAS G12C (P62937 whole entry): as the sequence (P62937 whole entry) above
Chain of KRAS G12D (P01116 1-169 isoform P01116-2 G12D limits assumed): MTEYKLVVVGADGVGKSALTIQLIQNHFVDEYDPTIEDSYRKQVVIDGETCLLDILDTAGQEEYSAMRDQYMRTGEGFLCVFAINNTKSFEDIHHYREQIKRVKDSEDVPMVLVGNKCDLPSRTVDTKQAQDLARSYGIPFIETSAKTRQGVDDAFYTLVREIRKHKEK
Chain of KRAS G12D (P62937 whole entry): as the sequence (P62937 whole entry) above
Chain of NRAS WT (P01111 whole entry): as the sequence (P01111 whole entry G12C) above, with C12G counted along it
Chain of NRAS WT (P62937 whole entry): as the sequence (P62937 whole entry) above
Chain of KRAS Q61H (P01116 1-169 isoform P01116-2 Q61H limits assumed): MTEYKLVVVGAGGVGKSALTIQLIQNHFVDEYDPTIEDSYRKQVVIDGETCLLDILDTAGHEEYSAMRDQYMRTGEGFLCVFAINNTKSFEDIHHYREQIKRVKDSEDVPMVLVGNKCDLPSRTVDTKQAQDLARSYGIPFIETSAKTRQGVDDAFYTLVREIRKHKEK
Chain of KRAS Q61H (P62937 whole entry): as the sequence (P62937 whole entry) above
Chain of KRAS G13C (P01116 1-169 isoform P01116-2 G13C): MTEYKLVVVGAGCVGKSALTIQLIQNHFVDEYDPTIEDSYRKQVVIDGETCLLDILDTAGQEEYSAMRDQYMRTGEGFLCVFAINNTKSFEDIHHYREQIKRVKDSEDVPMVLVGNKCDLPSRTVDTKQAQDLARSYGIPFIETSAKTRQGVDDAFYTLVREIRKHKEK
Chain of KRAS G13C (P62937 whole entry): as the sequence (P62937 whole entry) above
Chain of KRAS WT (P01116 1-169 isoform P01116-2 limits assumed): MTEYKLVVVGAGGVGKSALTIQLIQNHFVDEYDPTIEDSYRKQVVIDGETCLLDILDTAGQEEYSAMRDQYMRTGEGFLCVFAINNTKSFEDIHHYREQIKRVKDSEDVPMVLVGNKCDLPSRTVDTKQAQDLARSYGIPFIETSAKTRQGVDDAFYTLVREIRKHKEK
Chain of KRAS WT (P62937 whole entry): as the sequence (P62937 whole entry) above
Chain of KRAS G12V (P01116 1-169 isoform P01116-2 G12V limits assumed): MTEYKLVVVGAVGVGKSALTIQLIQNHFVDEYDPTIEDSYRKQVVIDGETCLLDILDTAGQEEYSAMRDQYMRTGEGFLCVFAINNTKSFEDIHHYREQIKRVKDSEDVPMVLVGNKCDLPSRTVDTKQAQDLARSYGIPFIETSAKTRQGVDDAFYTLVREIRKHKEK
Chain of KRAS G12V (P62937 whole entry): as the sequence (P62937 whole entry) above
Chain of KRAS G12S (P01116 1-169 isoform P01116-2 G12S limits assumed): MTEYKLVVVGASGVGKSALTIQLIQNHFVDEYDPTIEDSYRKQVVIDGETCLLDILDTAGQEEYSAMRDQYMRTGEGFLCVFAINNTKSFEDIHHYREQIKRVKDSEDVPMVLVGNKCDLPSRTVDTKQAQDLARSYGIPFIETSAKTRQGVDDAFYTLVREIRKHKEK
Chain of KRAS G12S (P62937 whole entry): as the sequence (P62937 whole entry) above
Chain of NRAS Q61R (P01111 whole entry Q61R): as the sequence (P01111 whole entry G12C) above, with C12G, Q61R counted along it
Chain of NRAS Q61R (P62937 whole entry): as the sequence (P62937 whole entry) above
Chain of KRAS G12C (P01116 1-169 isoform P01116-2 G12C): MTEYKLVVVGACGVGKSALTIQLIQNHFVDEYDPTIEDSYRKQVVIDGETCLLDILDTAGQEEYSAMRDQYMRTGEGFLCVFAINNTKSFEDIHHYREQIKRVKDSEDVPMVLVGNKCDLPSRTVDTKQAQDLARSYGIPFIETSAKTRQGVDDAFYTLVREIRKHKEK
Chain of KRAS G12C (P62937 whole entry): as the sequence (P62937 whole entry) above
Chain of NRAS Q61K (P01111 whole entry Q61K): as the sequence (P01111 whole entry G12C) above, with C12G, Q61K counted along it
Chain of NRAS Q61K (P62937 whole entry): as the sequence (P62937 whole entry) above

Compound | IC50 [1] [nM] | IC50 [2] [nM] | IC50 [3] [nM] | IC50 [4] [nM] | IC50 [5] [nM] | IC50 [6] [nM] | IC50 [7] [nM] | IC50 [8] [nM] | IC50 [9] [nM] | IC50 [10] [nM] | IC50 [11] [nM] | IC50 [12] [nM] | IC50 [13] [nM] | IC50 [14] [nM]
CCn1c(-c2cccnc2[C@H](C)OC)c2c3cc(ccc31)-c1csc(n1)C[C@H](NC(=O)[C@H](C(C)C)N(C)C(=O)N1C[C@H](OC)[C@@H](N)C1)C(=O)N1CCC[C@H](N1)C(=O)OCC(C)(C)C2 (atropisomer, axis not shown) [Example A580] | 100 to 1000 | 100 to 1000 | 100 to 1000 | 100 to 1000 | 100 to 1000 | 100 to 1000 | 100 to 1000 | 100 to 1000 | 100 to 1000 | 100 to 1000 | 100 to 1000 | 10 to 100 | 100 to 1000 | 100 to 1000
CCn1c(-c2cc(N3CCN(C)CC3)cnc2[C@H](C)OC)c2c3cc(ccc31)-c1csc(n1)C[C@H](NC(=O)[C@H](C(C)C)N(C)C(=O)[C@@H]1OCC[C@@H]1c1ccccc1)C(=O)N1CCC[C@H](N1)C(=O)OCC(C)(C)C2 (atropisomer, axis not shown) [Example A583] | < 10 | < 10 | 100 to 1000 | 100 to 1000 | 100 to 1000 | 100 to 1000 | 10 to 100 | 100 to 1000 | 100 to 1000 | 10 to 100 | 10 to 100 | 100 to 1000 | 10 to 100 | 100 to 1000
CCn1c(-c2cc(N3CCN(C)CC3)cnc2[C@H](C)OC)c2c3cc(ccc31)-c1cc(O)cc(c1)C[C@H](NC(=O)[C@H](C(C)C)N(C)C(=O)[C@@H]1OCC[C@@H]1c1ccccc1)C(=O)N1CCC[C@H](N1)C(=O)OCC(C)(C)C2 (atropisomer, axis not shown) [Example A594] | < 10 | < 10 | 10 to 100 | < 10 | 10 to 100 | 10 to 100 | < 10 | < 10 | < 10 | < 10 | < 10 | 10 to 100 | < 10 | < 10
CCn1c(-c2cccnc2[C@H](C)OC)c2c3cc(ccc31)-c1csc(n1)C[C@H](NC(=O)[C@H](C(C)C)N(C)C(=O)N1CCN(C(=O)[C@H]3CCCN3C)CC1)C(=O)N1CCC[C@H](N1)C(=O)OCC(C)(C)C2 (atropisomer, axis not shown) [Example A595] | 100 to 1000 | 10 to 100 | 100 to 1000 | 100 to 1000 | 100 to 1000 | 100 to 1000 | 10 to 100 | 100 to 1000 | 100 to 1000 | 10 to 100 | 100 to 1000 | 10 to 100 | 10 to 100 | 100 to 1000
CCn1c(-c2cccnc2[C@H](C)OC)c2c3cc(ccc31)-c1csc(n1)C[C@H](NC(=O)[C@H](C(C)C)N(C)C(=O)N1CCC13CCOCC3)C(=O)N1CCC[C@H](N1)C(=O)OCC(C)(C)C2 (atropisomer, axis not shown) [Example A601] | 10 to 100 | 10 to 100 | 100 to 1000 | 100 to 1000 | 100 to 1000 | 100 to 1000 | 10 to 100 | 100 to 1000 | 100 to 1000 | 10 to 100 | 10 to 100 | 10 to 100 | 10 to 100 | 100 to 1000
CCn1c(-c2cccnc2[C@H](C)OC)c2c3cc(ccc31)-c1cc(O)cc(c1)C[C@H](NC(=O)[C@H](C(C)C)N(C)C(=O)[C@@H]1CCN[C@@H]1c1ccccc1)C(=O)N1CCC[C@H](N1)C(=O)OCC(C)(C)C2 (atropisomer, axis not shown) [Example A605] | 100 to 1000 | 10 to 100 | 10 to 100 | 10 to 100 | 10 to 100 | 10 to 100 | 10 to 100 | 10 to 100 | 10 to 100 | 10 to 100 | 100 to 1000 | 100 to 1000 | < 10 | 10 to 100
CCn1c(-c2cccnc2[C@H](C)OC)c2c3cc(ccc31)-c1csc(n1)C[C@H](NC(=O)[C@H](C(C)C)N(C)C(=O)N1CCN(C(=O)C3COC3)CC1)C(=O)N1CCC[C@H](N1)C(=O)OCC(C)(C)C2 (atropisomer, axis not shown) [Example A606] | 10 to 100 | < 10 | 100 to 1000 | 10 to 100 | 100 to 1000 | 100 to 1000 | 10 to 100 | 10 to 100 | 100 to 1000 | 10 to 100 | 10 to 100 | 10 to 100 | 10 to 100 | 10 to 100
CCn1c(-c2cccnc2[C@H](C)OC)c2c3cc(ccc31)-c1csc(n1)C[C@H](NC(=O)[C@H](C(C)C)N(C)C(=O)N1CC(C3CN(C)C3)C1)C(=O)N1CCC[C@H](N1)C(=O)OCC(C)(C)C2 (atropisomer, axis not shown) [Example A608] | 10 to 100 | 100 to 1000 | 100 to 1000 | 100 to 1000 | 100 to 1000 | 100 to 1000 | 10 to 100 | 100 to 1000 | 100 to 1000 | 10 to 100 | 100 to 1000 | 10 to 100 | 10 to 100 | 100 to 1000
